From patent US20030219476A1, “Liposomal formulation of mitoxantrone” (priority 2000, published 2003)
Entries after “also recorded” stand apart in the source; their conditions may differ. Structures can show the parent of a compound that is named as a salt. Where two headings read alike, the source gives them in different places.

Legend:
L1210 leukemia cells = assay: L1210 ascitic leukemia survival, single dose (Example 14); type: in vivo, mice
Experimental: Murine leukemia cells, L1210 leukemia cells were grown in the peritoneum of CD2F1 mice by three serial propagations (i.p.). Ascites developed within eight days of the last inoculation were used in the following experiments. Cytostatic activities of liposomal and conventional formulations of mitoxantrone against L1210 ascitic leukemia was determined. Animal group weights were determined three times a week and clinically morbid animals were humanely sacrificed. The surviving mice were observed daily for 60 days. Group survival times post i.v. treatment with single or multiple doses of the drug was indicative of the relative anti-tumor potencies of liposomal and conventional mitoxantrone.
Female CD2F1 mice were divided into eight groups of 10 animals and inoculated i.v. with 10,000 L1210 cells. Drug was administered twenty-four hours later. Conventional mitoxantrone was administered at doses of 5 and 10 mg/kg. […] Surviving animals were sacrificed on day 60 of the experiment. Blank liposomes equivalent to the 35, mg/kg dose and normal saline was also administered as controls.

[1] = tested on: human hormone-refractory prostate tumor cells (PC-3)
Experimental: Male Balb/c, nu/nu, 6-8 week old mice were inoculated with 5×10^6 of human hormone-refractory prostate tumor cells (PC-3). Tumor growth was monitored twice a week until the tumor volumes were in the range of […]. Animals were then divided into groups and were treated by i.v. injection via the tail vein with conventional mitoxantrone at doses of 0.625, 1.25, 2.5, and 5 mg/kg once every other day for four days. Doses of mitoxantrone formulated in liposomes were 2.5, 5, 7.5, and 10 mg/kg. Control animals received either normal saline or blank liposomes. The median survival time was calculated and all surviving animals were sacrificed on Day 34.
In these experiments tumor volumes were measured once or twice a week by measuring the three major axes.

male CD2F1 mice [2] = tested on: male CD2F1 mice
Experimental: Eighty male CD2F1 mice weighing 20-22 g were acclimated for 1 week and randomly separated into 8 groups of ten animals each with 5 animals per cage. On day 0 all groups of animals were injected i.v. in the tail vein with the drug or vehicle control. The volumes administered were varied based on individual animal weights. Mouse weights were recorded for each mouse on alternate days following injection and observation for clinical illness were recorded at least daily.

male CD2F1 mice [3] = settings: 25 mg/kg single i.v.
Experimental: Twenty male CD2F1 mice weighing 20-22 g were acclimated for 1 week and randomly separated into 4 groups of five animals each with 5 animals per cage. On day 0 all groups of animals were injected i.v. in the tail vein with the drug or vehicle control. The volumes administered were varied based on individual animal weights. Mouse weights were recorded for each mouse on alternate days following injection and observation for clinical illness were recorded at least daily.

male CD2F1 mice [4] = tested on: male CD2F1 mice; remark: listed apart in the source
Experimental: Seventy male CD2F1 mice weighing 20-22 g were acclimated for 1 week and randomly separated into 7 groups of ten animals each with 5 animals per cage. On day 0 all groups of animals were injected i.v. in the tail vein with the drug or vehicle control. The volumes administered were varied based on individual animal weights. Mouse weights were recorded for each mouse on alternate days following injection and observation for clinical illness were recorded at least daily.

male CD2F1 mice [5] = tested on: male CD2F1 mice; remark: listed apart in the source
Experimental: Forty male CD2F1 mice weighing 20-22 g were acclimated for 1 week and randomly separated into 8 groups of five animals each with 5 animals per cage. On day 0 all groups of animals were injected i.v. in the tail vein with the drug or vehicle control and once daily thereafter for a period of 5 days. The volumes administered were varied based on individual animal weights. Mouse weights were recorded for each mouse on alternate days following injection and observations of clinical illness were recorded at least daily.

male CD2F1 mice [6] = tested on: male CD2F1 mice; remark: listed apart in the source
Experimental: Thirty male CD2F1 mice weighing 20-22 g were acclimated for 1 week and randomly separated into 6 groups of five animals each with 5 animals per cage. On day 0 all groups of animals were injected i.v. in the tail vein with the drug or vehicle control and once daily thereafter for a period of 5 days. The volumes administered were varied based on individual animal weights. Mouse weights were determined for each mouse on alternate days following injection and observation for clinical illness were recorded at least daily.

in vivo [7] = settings: male, CD2F1, mouse, plasma, iv, 5 mg/kg
Experimental: Plasma and tissue samples were analyzed for mitoxantrone by reverse phase HPLC. Plasma samples (0.25 ml) were mixed with 0.5 ml of solution of 0.01 mg/ml hexanesulfonic acid, 0.5 mg/ml ascorbic acid, and 0.25 μg ametantrone as internal standard. After vortexing for 30 sec., 0.5 ml of 0.1 M borate buffer (pH 9.5) and 150 μl of 1 M sodium hydroxide was added and the solution vortexed again for 30 sec. […] The organic layer (9 ml) was separated and evaporated under nitrogen. Samples were reconstituted with 10 μl of mobile phase prior to HPLC analysis. Tissue samples were homogenized in 1 ml of solution containing 20% ascorbic acid in 0.1 M citrate buffer, pH 3.0, and extracted as described above. Mitoxantrone was separated by reverse-phase chromatography (Waters μBondapak® C-18) using a mobile phase of 33% acetonitrile, and 67% 0.16 M ammonium formate buffer, pH 2.7 delivered at a flow rate of 1 ml/min. Mitoxantrone was detected at 600 nm. The limit of sensitivity was 10 ng/ml.
Plasma Pharmacokinetic parameters were assessed by standard methods. The elimination rate constant (K) was calculated from the linear regression analysis of plasma concentration-time curve. The area under the curve (AUC0→∞) was calculated using the linear trapezoidal method with extrapolation of the terminal phase to infinity (Clast/K), where Clast is the last measured concentration. Other parameters calculated were total body clearance (Cl) as Dose/AUC; volume of distribution (Varea)=Cl/K; elimination half-life (t1/2)=0.693/Karea.

in vivo [8] = settings: beagle, dog, plasma, iv, 0.26 mg/kg
Experimental: (§1) Time points analyzed were 0, 5 and 30 min and 1, 2, 4, 8 and 24 h after a single dose administration.

[9] = Plasma pharmacokinetics in dogs (Example 17)
Experimental: as §1

beagle dogs = assay: Repeated-dose i.v. toxicity in beagle dogs (Example 18)
Experimental: Conventional mitoxantrone was administered to beagle dogs (3/sex/group) at i.v. dosages of 0 (saline), 0.129 or 0.258 mg/kg (2.6 or 5 mg/m^2) on Days 1, 23, 43 and 65. […] Evaluations for compound-related effects were based on clinical observations, body weight, food consumption, ophthalmologic and ECG examination, clinical pathology, plasma drug concentrations, organ weights and gross and microscopic postmortem examinations.

[10] = conventional 5 mg/kg, liposomal 10 mg/kg, daily x5

## O=C1c2c(O)ccc(O)c2C(=O)c2c(NCCNCCO)ccc(NCCNCCO)c21 [conventional mitoxantrone, mitoxantrone hydrochloride]
L1210 leukemia cells; 5 mg/kg single i.v., 24 h after 10,000 L1210 cells i.v.
  median survival: 12 days
L1210 leukemia cells; 10 mg/kg single i.v.
  animals alive at day 60: 2/10
  median survival time: 20 days
[1]; 0.625 and 1.25 mg/kg i.v. once every other day
  survival by day 34: 100%
[1]; 2.5 and 5 mg/kg i.v. once every other day
  survival by day 34: no animals
[1]; in vivo
  toxicity in tumor-bearing mice: Severe toxicity
Male CD2F1 mice [2]; 10 mg/kg single i.v., by day 10, then gradual recovery
  weight loss: 20%
Male CD2F1 mice [2]; 15 mg/kg single i.v. dose
  morbidity: 100%
Male CD2F1 mice [2]; 15 mg/kg single i.v., by day 9/10
  weight loss: about 35%
Male CD2F1 mice [2]; 15 mg/kg single i.v., day 10, hydrochloride
  ALT: Clinically significant elevations in ALT; also recorded: significant increases in ALT
Male CD2F1 mice [2]; 15 mg/kg single i.v., two mice
  BUN: modest elevations in BUN
Male CD2F1 mice [2]; single i.v. dose, spleen and bone marrow
  histopathology: compound effects on hematopoietic and lymphoid tissues of the spleen and bone marrow
Male CD2F1 mice [2]; single i.v., conventional 5 mg/kg, liposomal 5, 10, 15 mg/kg
  body weight course (remaining groups): gained weight steadily
Male CD2F1 mice [3]
  morbidity: 100%
Male CD2F1 mice [4]; 10 mg/kg single i.v., gradual recovery
  initial weight loss: 13%
Male CD2F1 mice [4]; 25 mg/kg single i.v.
  morbidity: 100%
Male CD2F1 mice [4]; day 3, one mouse each: conventional 25 mg/kg, liposomal 35 mg/kg
  ALT activities: modest increases in ALT activities
Male CD2F1 mice [5]; 5 and 7.5 mg/kg daily x5
  animals that died: all of the animals
Male CD2F1 mice [5]; 5 and 7.5 mg/kg daily x5, by day 7
  progressive weight loss: about 25%
Male CD2F1 mice [5]; 5 or 7.5 mg/kg daily x5, several mice
  hepatocellular vacuolar degeneration: Some hepatocellular vacuolar degeneration
Male CD2F1 mice [5]; conventional 5, 7.5 mg/kg, liposomal 7.5 mg/kg, daily x5
  leukopenia in moribund-sacrificed mice: marked, clinically significant, compound related leukopenia
Male CD2F1 mice [5]; day 6, conventional 2.5, 5, 7.5 mg/kg, liposomal 7.5 mg/kg, daily x5
  clinical signs: ruffled fur and hunching behavior
Male CD2F1 mice [5]; liposomal any dose (2.5-7.5 mg/kg), conventional […], daily x5
  morbidity or mortality: no morbidity or mortality
Male CD2F1 mice [6]; 5 mg/kg daily x5
  lethality (mice tested): 100%
Male CD2F1 mice [6]; 5 mg/kg daily x5, by day 9
  progressive weight loss: about 35%
Male CD2F1 mice [6]; by day 8, conventional 5 mg/kg/day vs liposomal 10 mg/kg/day
  acute liver injury (ALT, AST, bilirubin): roughly equivalent acute liver injury
Male CD2F1 mice [6]; [10]
  AST and ALT in moribund sacrificed animals: marked elevations in AST and ALT
  leukopenia in moribund animals: marked leukopenia
  mice with bilirubin concentration greater than in control mice: 3 of the 4
Male CD2F1 mice [6]; conventional 2.5, 5 mg/kg, liposomal 10 mg/kg, daily x5
  clinical signs: ruffled fur and hunching behavior
5 mg/kg single i.v.
  tissue concentration, kidneys: ~40 µg/g
  tissue concentration, lungs: approximately 20 μg/g
5 mg/kg single i.v., 5 and 15 minutes
  heart tissue concentration: approximately 10 μg/g
5 mg/kg single i.v., 5 minutes
  heart concentration (peak): 11 µg/g
5 mg/kg single i.v., end of time course
  liver concentration after gradual decrease: ~2 µg/g
5 mg/kg single i.v., start of time course
  liver concentration, initial: approximately 19 μg/g
All time points, 5 mg/kg i.v.
  heart, lung and kidney concentrations, comparison of formulations: higher
In vivo [7]
  AUC: 140 ng·h/mL
  Cmax: 410 ng/mL
  Vd: 5.5 L/kg
  clearance: 600 mL/min/kg
  half-life: 6.6 min
In vivo [8]; female
  Cmax: 60 ng/mL
In vivo [8]; male
  Cmax: 84 ng/mL
  clearance: 89 mL/min/kg
  half-life: 21.6 min
[9]; 0.26 mg/kg i.v., male dogs, mean
  V: 2.8 L/kg
[9]; high dose (0.26 mg/kg)
  time point at which plasma concentrations could not be measured: 30 min
Beagle dogs; 0.129 and 0.258 mg/kg, 4 to 10 days following each dose cycle, dose related
  hematology: leukopenia and thrombocytopenia
Beagle dogs; any examination time
  ECG parameters: no changes in ECG parameters
Beagle dogs; any groups
  food consumption: no changes in food consumption
Beagle dogs; any of the dosage groups
  coagulation or clinical chemistry parameters: No changes
Beagle dogs; conventional: all animals, liposomal: female dogs
  anemia: Anemia did not occur
Beagle dogs; conventional: males at 0.258 mg/kg, liposomal: all dose groups, Days 1, 23, 43, 65
  body weight: lost weight
